According to patent US12077534B2, “Aza-heterobicyclic inhibitors of MAT2A and methods of use for treating cancer” (Les Laboratoires Servier SAS, priority 2018, dated 2024):

Assays:
MAT2A homodimer = biological target: T1, MAT2A homodimer (Homo sapiens, UniProt P31153); assay: MAT2A biochemical assay (phosphate release, PiColorLock Gold); details: recombinant MAT2A homodimer, 60 min pre-incubation, 25° C.; read-out: Enzyme Inhibition
T1 construct: inferred from Ni sepharose purification and imidazole elution; made in house; host or cells: SF9 insect cells, recombinant baculovirus (Bac to Bac, pFASTBAC1)
T1 sequence (P31153 whole entry): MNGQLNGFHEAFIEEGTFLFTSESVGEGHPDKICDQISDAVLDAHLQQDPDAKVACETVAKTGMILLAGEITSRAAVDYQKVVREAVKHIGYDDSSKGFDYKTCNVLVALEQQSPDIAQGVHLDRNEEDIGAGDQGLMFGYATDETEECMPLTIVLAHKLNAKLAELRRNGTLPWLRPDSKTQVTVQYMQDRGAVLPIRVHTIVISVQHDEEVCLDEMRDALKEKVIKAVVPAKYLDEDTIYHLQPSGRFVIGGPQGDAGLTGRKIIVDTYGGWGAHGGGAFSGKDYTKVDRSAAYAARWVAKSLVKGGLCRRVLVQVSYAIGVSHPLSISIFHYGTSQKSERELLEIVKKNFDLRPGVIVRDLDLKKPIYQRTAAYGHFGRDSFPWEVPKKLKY
Procedure: Mat2A protein was expressed by recombinant baculovirus in SF9 infected cells using the Bac to Bac system cloned into the pFASTBAC1 vector (Invitrogen, Carlsbad, CA). Recombinant MAT2A was isolated from the cell lysate of 150 g of infected cells using HP Ni sepharose column chromatography. Recombinant MAT2A homodimer was eluted with 250 and 500 mM imidazole, and fractions containing MAT2A were identified by sodium dodecyl sulfate polyacrylamide gel electrophoresis and pooled.
For determination of the inhibitory potency of compounds against the MAT2A homodimer, protein was diluted to 4 μg/mL in assay buffer (50 mM Tris, pH 8.0, 50 mM KCl, 15 mM MgCl2, 0.3 mM EDTA, 0.005% [w/v] bovine serum albumin [BSA]). Test compound was prepared in 100% dimethyl sulfoxide (DMSO) at 50× the desired final concentration. A 1 μL volume of compound dilution was added to 40 μL of enzyme dilution and the mixture was allowed to equilibrate for 60 minutes at 25° C. The enzymatic assay was initiated by the addition of 10 μL of substrate mix (500 μM ATP, pH 7.0, 400 μM L-methionine in 1× assay buffer), and the mixture was incubated for a further 60 minutes at 25° C. The reaction was halted and the liberated phosphate released by the enzyme in stoichiometric amounts by the production of S-adenosyl methionine (SAM) was measured using the PiColorLock Gold kit (Innova Biosciences, UK). Absolute product amounts were determined by comparison to a standard curve of potassium phosphate buffer, pH 8.0.

[1] = test system: MAT2A activity (SAM) in HCT116 cells with deleted MTAP gene; assay: Cellular assay of target engagement (SAM) by LC-MS/MS; format: cell-based; details: Homo sapiens, HCT-116; HCT116 MTAP −/−, 72 hrs; read-out: Cell 72 h SAM Inhibition (MTAP −/−)
Procedure: Measurement of MAT2A activity in cells was made by direct quantitation of the abundance of the product of its enzymatic activity, SAM. Cancer cells were treated with candidate MAT2A inhibitors for a suitable incubation period, and the cells were then lysed using a reagent which quenched any further enzyme activity. Soluble metabolites including SAM were collected and SAM itself was directly measured from the lysate using quantitative LC-MS/MS.
A typical assay was performed using an HCT116 human colon carcinoma cell line which was genetically engineered to delete the MTAP gene (commercially available from Horizon Discovery). This cell line was utilized because it was determined that loss of the MTAP gene predicts sensitivity to MAT2A inhibitors. Cells were plated in 96-well dishes at appropriate cell density. Following 24 hours, cells were then treated with the candidate MAT2A inhibitor. Prior to addition to cells, the compound was first serially diluted in 100% DMSO, typically as a 3-fold serial dilution starting at 500× top dose with 10 dose points including DMSO only control. Compound was then transferred to a working stock plate in cell culture media by adding 5 μL of compound in DMSO to 495 μL of cell culture media. This working stock was then added to cells via a further 5-fold dilution, by adding 25 μL of working stock to 100 μL of cells in culture media. Following compound addition, cells were incubated at 37° C./5% CO2 for 72 hrs.
To quantitate SAM levels following compound treatment, cells were gently washed once in ammonium carbonate buffer (75 mM at pH 7.4), placed on dry ice, and lysed with metabolite extraction buffer (80% cold methanol and 20% water (v/v) with acetic acid at 1M final concentration with 200 ng/mL deuterated d3-SAM as internal control). Following centrifugation at 4° C. at 3,200 rpm for 30 minutes, the supernatant was collected and stored at −80° C. until analysis by Liquid Chromatography with tandem Mass Spectrometry (LC-MS/MS). LC-MS/MS analysis was performed using an API6500 Mass Spectrometer (Sciex, Framingham, MA, USA) operating in positive ion spray mode and equipped with a Waters UPLC Acquity (Waters, Milford, MA, USA) BEH Amide column. Multiple Reaction Monitoring data was acquired for SAM and the d3-SAM standard, using a mass transition pair at m/z 399.2→250.1 and 402.2→250.1, respectively. In a typical LC-MS/MS analysis, the initial flow rate was 0.5 ml/min of 25% mobile phase A (acetonitrile and water at 5:95 (v/v) with 1% formic acid and 10 mM ammonium acetate) and 75% mobile phase B (acetonitrile and water at 95:5 (v/v) with 1% formic acid and 10 mM ammonium acetate), 0.2-0.5 minutes with 75%-35% mobile phase B, 25%-65% mobile phase A, at 0.5 min 65% mobile phase A and 35% mobile phase B, 1.0-1.1 minutes with 35%-75% mobile phase B, 65%-25% mobile phase A, at 1.1 min 25% mobile phase A and 75% mobile phase B with a total run time of 1.5 minutes.

HCT116 MTAP−/− = assay: Inhibition of cellular proliferation (Cell Titer Glo), HCT116 MTAP-/-; format: cell-based; details: Homo sapiens, HCT-116, 96 h, 4 days, read-out: 4 Day Relative Growth Inhibition (MTAP −/−)
Procedure: (§1) Test compound impact on cancer cell growth was assessed by treating cancer cells with compound for 4 days and then measuring proliferation using an ATP-based cell proliferation readout (Cell Titer Glo, Promega Corporation).
(§2) In a typical assay an isogenic pair of HCT116 human colon carcinoma cell lines which vary only in MTAP deletion status (HCT116 MTAP+/+ and HCT116 MTAP−/−) were plated in 96-well dishes at appropriate cell density. Following 24 hours, cells were then treated with the candidate MAT2A inhibitor. Prior to addition to cells, the compound was first serially diluted in 100% DMSO, typically as a 3-fold serial dilution starting at 500× top dose with 10 dose points including DMSO only control. Compound was then transferred to a working stock plate in cell culture media by adding 5 μL of compound in DMSO to 495 μL of cell culture media. This working stock was then added to cells via a further 5-fold dilution, by adding 25 μL of working stock to 100 μL of cells in culture media. Following compound addition, cells were incubated at 37° C./5% CO2 for 4 days.
(§3) To measure inhibition of cellular proliferation, cells were allowed to equilibrate to room temperature for 30 minutes, and were then treated with 125 μL of Cell Titer Glo reagent. The plate was then covered with aluminum foil and shaken for 15 minutes to ensure complete mixing and full cell lysis. Luminescent signal was then measured using a plate-based luminometer Veritas version 1.9.2 using ATP standard curve to confirm assay reproducibility from run to run. This luminescence measure was converted to a proliferation index by subtracting from each data point the ATP luminescence signal measured from a bank (no cells) well and dividing by the ATP luminescence signal measured in 0.2% DMSO control well adjusted for signal in blank well. Compound activity was then represented as a percentage change in proliferation relative to a within-plate DMSO control against log 10 of compound concentration in molar (M) units.

HCT116 MTAP+/+ = assay: Inhibition of cellular proliferation (Cell Titer Glo), HCT116 MTAP+/+; format: cell-based; details: Homo sapiens, HCT-116, 96 h, 4 days, read-out: 4 Day Relative Growth Inhibition (MTAP +/+)
Procedure: as §1, §2, §3

Structure (SMILES)	IC50 (MAT2A homodimer) [nM]	IC50 [1] [nM]	IC50 (HCT116 MTAP−/−) [nM]	IC50 (HCT116 MTAP+/+) [nM]
CNc1ccc(-n2nc3ccc(OCC(F)F)nc3c(-c3ccc(OC(F)F)cc3)c2=O)cc1 [Example 185]	100 to 1000	–	–	–
COc1ccc(-n2nc3ccc(OCC(F)(F)F)nc3c(-c3ccc(Cl)cc3)c2=O)cc1 [Example 118]	100 to 1000	–	–	–
Cn1cc(-n2nc3ccc(NCC(F)(F)F)nc3c(-c3ccc(C(F)F)nc3)c2=O)ccc1=O [Example 329]	100 to 1000	–	–	–
O=C1CCC(n2nc3ccc(OCC(F)F)nc3c(-c3ccc(OC(F)F)cc3)c2=O)CC1 [Example 216, 6-(2,2-difluoroethoxy)-4-(4-(difluoromethoxy)phenyl)-2-(4-oxocyclohexyl)pyrido[3,2-c]pyridazin-3(2H)-one]	100 to 1000	–	–	–
Cn1cc2cc(-n3nc4ccc(OCC(F)F)nc4c(C#C[Si](C)(C)C)c3=O)ccc2n1 [Example 213, 6-(2,2-difluoroethoxy)-2-(2-methyl-2H-indazol-5-yl)-4-((trimethylsilyl)ethynyl)pyrido[3,2-c]pyridazin-3(2H)-one]	100 to 1000	–	≥ 1000	≥ 1000
[2H]C([2H])([2H])n1cc2cc(-n3nc4ccc(NCC)nc4c(-c4ccc(C)nc4)c3=O)ccc2n1 [Example 330]	< 100	–	–	–
Cc1ccc(-c2c(=O)n(-c3ccc4nn(C)cc4c3)nc3ccc(NC4CC4)nc23)cn1 [Example 306]	< 100	–	–	–
O=c1c(-c2ccc(OC(F)F)cc2)c2nc(OCC(F)F)ccc2nn1-c1ccc(Cl)cc1 [Example 190]	1000 to 10000	–	–	–
[2H]C([2H])([2H])Oc1ccc(-n2nc3ccc(NCC(F)(F)F)nc3c(-c3ccc(C(F)F)nc3)c2=O)cc1 [Example 322, 4-(6-(difluoromethyl)pyridin-3-yl)-2-(4-(methoxy-d3)phenyl)-6-((2,2,2-trifluoroethyl)amino)pyrido[3,2-c]pyridazin-3(2H)-one]	< 100	–	–	–
N#Cc1ccc(-n2nc3ccc(OCC(F)F)nc3c(-c3ccc(OC(F)F)cc3)c2=O)cc1 [Example 181]	1000 to 10000	–	–	–
O=c1c(-c2ccc(OC(F)F)cc2)c2nc(OCC(F)F)ccc2nn1-c1cncs1 [Example 186]	100 to 1000	–	–	–
Cn1cc(-n2nc3ccc(OCC(F)F)nc3c(-c3ccc(C(F)F)nc3)c2=O)ccc1=O [Example 328]	100 to 1000	–	–	–
Cn1cc2cc(-n3nc4ccc(OCC5CC5(F)F)nc4c(-c4ccc(C5CC5)nc4)c3=O)ccc2n1 (centres unmarked) [Example 314]	< 100	–	–	–
CCNc1ccc2nn(-c3ccc(=O)n(C)c3)c(=O)c(-c3ccc(C(F)F)nc3)c2n1 [Example 326]	< 100	–	–	–
Cn1cc2cc(-n3nc4ccc(N5CCC5)nc4c(-c4ccc(OC(F)F)cc4)c3=O)ccc2n1 [Example 164]	100 to 1000	–	–	–

Other lines, results leading:

IC50 (MAT2A homodimer) [nM]	IC50 [1] [nM]	IC50 (HCT116 MTAP−/−) [nM]	IC50 (HCT116 MTAP+/+) [nM]	Structure (SMILES)
< 100	< 100	< 100	≥ 1000	CCNc1ccc2nn(-c3ccc4nn(C)cc4c3)c(=O)c(-c3ccc(OC)nc3)c2n1 [Example 307]
< 100	100 to 1000	< 100	≥ 1000	Cn1cc2cc(-n3nc4cc(F)c(OCC(F)F)nc4c(-c4ccc(OC(F)F)cc4)c3=O)ccc2n1 [Example 194, 6-(2,2-difluoroethoxy)-4-(4-(difluoromethoxy)phenyl)-7-fluoro-2-(2-methyl-2H-indazol-5-yl)pyrido[3,2-c]pyridazin-3(2H)-one]
< 100	< 100	< 100	100 to 1000	Cn1cc2cc(-n3nc4c(N)cc(OCC(F)F)nc4c(-c4ccc(OC(F)F)cc4)c3=O)ccc2n1 [Example 212, 8-amino-6-(2,2-difluoroethoxy)-4-(4-(difluoromethoxy)phenyl)-2-(2-methyl-2H-indazol-5-yl)pyrido[3,2-c]pyridazin-3(2H)-one]
< 100	< 100	< 100	≥ 1000	CC(C)Oc1ccc2nn(-c3ccc4ncsc4c3)c(=O)c(-c3ccc(Br)cc3)c2n1 [Example 202, 2-(benzo[d]thiazol-6-yl)-4-(4-bromophenyl)-6-isopropoxypyrido[3,2-c]pyridazin-3(2H)-one]
< 100	–	–	–	CCNc1ccc2nn(-c3ccc4ncsc4c3)c(=O)c(-c3ccc(C4CC4)cc3)c2n1 [Example 311]
< 100	–	–	–	CN(C)c1ccc2nn(-c3ccc4nn(C)c(N(C)C)c4c3)c(=O)c(-c3ccc(OC(F)F)cc3)c2n1 [Example 204, 4-(4-(difluoromethoxy)phenyl)-6-(dimethylamino)-2-(3-(dimethylamino)-2-methyl-2H-indazol-5-yl)pyrido[3,2-c]pyridazin-3(2H)-one]
< 100	–	–	–	[2H]C([2H])([2H])C([2H])([2H])Nc1ccc2nn(-c3ccc4nn(C)cc4c3)c(=O)c(-c3ccc(C(F)F)nc3)c2n1 [Example 324]
< 100	–	–	–	COc1ccc(-c2c(=O)n(-c3ccc4nn(C)cc4c3)nc3ccc(NC4CC4)nc23)cn1 [Example 308]
< 100	–	–	–	CCNc1ccc2nn(-c3ccc4nn(C)cc4c3)c(=O)c(-c3ccc4[nH]cc(C#N)c4c3)c2n1 [Example 332, 5-(6-(ethylamino)-2-(2-methyl-2H-indazol-5-yl)-3-oxo-2,3-dihydropyrido[3,2-c]pyridazin-4-yl)-1H-indole-3-carbonitrile]
< 100	–	–	–	[2H]C([2H])([2H])n1cc2cc(-n3nc4ccc(NC([2H])([2H])C([2H])([2H])[2H])nc4c(-c4ccc(C)nc4)c3=O)ccc2n1 [Example 325]
< 100	–	–	–	[2H]C([2H])([2H])c1ccc(-c2c(=O)n(-c3ccc4nn(C)cc4c3)nc3ccc(NCC)nc23)cn1 [Example 320]
< 100	–	–	–	CCNc1ccc2nn(-c3ccc4nn(C)cc4c3)c(=O)c(-c3ccc(C4CC4)cc3)c2n1 [Example 312]
